Laboratory results taken from publication PMC6414448, “Acaricidal Mechanism of Scopoletin Against Tetranychus cinnabarinus” (Frontiers in Physiology, 2019).

Target: T1, TcGPCR (G-protein-coupled neuropeptide receptor) (Tetranychus cinnabarinus, UniProt A0A2L1GE98)
T1 construct: full ORF in pcDNA3.1(+), transient expression in CHO-WTA11 cells with aequorin and Galpha16; seven TM helices, rhodopsin-like; T. urticae orthologue locus tetur02g03830
T1 sequence (A0A2L1GE98 1-513): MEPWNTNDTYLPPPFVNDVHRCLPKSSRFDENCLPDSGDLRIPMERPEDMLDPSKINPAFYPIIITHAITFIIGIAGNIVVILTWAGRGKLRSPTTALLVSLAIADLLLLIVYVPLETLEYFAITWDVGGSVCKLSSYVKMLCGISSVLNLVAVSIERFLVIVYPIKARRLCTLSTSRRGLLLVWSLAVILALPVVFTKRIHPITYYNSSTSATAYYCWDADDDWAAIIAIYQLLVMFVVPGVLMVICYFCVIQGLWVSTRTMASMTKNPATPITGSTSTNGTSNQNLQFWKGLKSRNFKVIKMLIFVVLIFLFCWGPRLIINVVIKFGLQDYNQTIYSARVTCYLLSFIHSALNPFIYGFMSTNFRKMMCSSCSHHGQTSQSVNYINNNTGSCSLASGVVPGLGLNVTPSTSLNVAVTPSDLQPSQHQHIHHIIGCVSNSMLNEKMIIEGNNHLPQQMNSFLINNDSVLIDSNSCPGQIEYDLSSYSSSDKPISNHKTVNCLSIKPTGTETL
Experiment: aequorin luminescence calcium mobilization in transfected CHO-WTA11 cells
Assay type: cell-based
From the text: aequorin luminescence calcium mobilization in transfected CHO-WTA11 cells on TcGPCR (G-protein-coupled neuropeptide receptor) | CHO cells expressing TcGPCR was induced by scopoletin in a concentration-dependent manner

COc1cc2ccc(=O)oc2cc1O [scopoletin]
EC50: 280 nM
